Assay results taken from patent publication US9044424B2, “Methods of regulating glucose metabolism, and reagents related thereto” (Trustees of Tufts College, priority 1998, dated 2015).
Like-named read-outs stand apart in the source and are kept apart here.

Experiments:
mice = experiment: Oral glucose tolerance test in mice; type: in vivo; conditions: for glucose levels in blood / glucose control: single injection alone, one hour prior to oral glucose challenge, FIG. 3; for response to a sub-therapeutic dose of GLP-1: single injection, with 8 μg GLP-1
Procedure: The first two experiments are “acute” experiments wherein the mice were injected with a single dose of Pro-boro-pro. In the first set of experiments mice were injected with 150 μg of Pro-boro-pro (PBP-1) and then subjected to an oral glucose tolerance test within an hour. […] In a second set of experiments mice were injected with Pro-boro-pro (PBP-2) one hour prior to an oral glucose challenge test. FIG. 3 presents the results of these experiments. Each set of experiments was also performed using saline as a control.
The third set of experiments were “chronic” experiments, wherein the mice were injected twice daily with Pro-boro-pro for four days, followed by an oral glucose challenge.

[1] = cited from earlier work
DP-IV = DP-IV (Homo sapiens, UniProt P27487); experiment: DP-IV inhibition / affinity
Sequence of DP-IV (P27487 whole entry): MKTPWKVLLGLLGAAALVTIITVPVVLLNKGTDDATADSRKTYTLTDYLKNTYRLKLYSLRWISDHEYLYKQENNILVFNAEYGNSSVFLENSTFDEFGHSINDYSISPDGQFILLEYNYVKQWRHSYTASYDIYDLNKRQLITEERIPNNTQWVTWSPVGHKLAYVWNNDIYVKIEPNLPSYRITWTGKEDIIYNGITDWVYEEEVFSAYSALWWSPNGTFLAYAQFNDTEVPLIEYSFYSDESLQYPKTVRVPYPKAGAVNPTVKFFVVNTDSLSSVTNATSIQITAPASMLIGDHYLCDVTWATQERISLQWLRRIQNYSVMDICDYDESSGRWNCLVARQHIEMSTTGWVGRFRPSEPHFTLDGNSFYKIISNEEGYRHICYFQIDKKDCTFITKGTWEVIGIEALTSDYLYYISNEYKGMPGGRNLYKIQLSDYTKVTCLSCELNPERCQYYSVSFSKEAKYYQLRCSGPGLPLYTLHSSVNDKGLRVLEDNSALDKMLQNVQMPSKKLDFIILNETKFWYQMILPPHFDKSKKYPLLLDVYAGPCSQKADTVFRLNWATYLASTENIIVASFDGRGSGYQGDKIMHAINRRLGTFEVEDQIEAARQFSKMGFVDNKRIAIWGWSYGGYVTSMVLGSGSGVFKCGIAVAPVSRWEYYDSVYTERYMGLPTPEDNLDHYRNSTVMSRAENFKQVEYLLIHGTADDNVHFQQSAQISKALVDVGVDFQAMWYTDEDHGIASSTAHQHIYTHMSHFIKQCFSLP
Procedure: As an illustrative embodiment, the ability of a test agent to inhibit DPIV can be assessed using a colorimetric or fluorometric substrate, such as Ala-Pro-paranitroanilide.
An illustrative reaction mixture includes 50 μM sodium Hepes (pH7.8), 10 μM Ala-Pro-paranitroanilide, 6 milliunits of DPIV, and 2% (v/v) dimethylformamide in a total volume of 1.0 mL. The reaction is initiated by addition of enzyme, and formation of reaction product (paranitroanilide) in the presence and absence of a test compound can be detected photometrically, e.g., at 410 nm.

[2] = chronic (>5 days) treatment alone

## O=C(C1CCCN1)N1CCCC1B(O)O (stereo not shown) [Pro-boro-pro]
mice; [2]
  fasting blood sugars: lowers
  glycemic excursion to oral glucose challenge: lowers
mice; chronic: injected twice daily for four days, then oral glucose challenge, FIG. 4
  blood sugar levels: lowering of the blood sugar levels
mice; oral glucose challenge in mice, overall statement
  blood sugar: clearly lowers blood sugar
mice; single injection 150 μg, oral glucose tolerance test within an hour, 8 μg GLP-1 five minutes prior to glucose, FIG. 2
  glucose levels in blood (glucose tolerance curve): improves glucose levels in blood
mice
  glucose levels in blood / glucose control: alone sufficient to improve glucose control
mice; listed as PBP-2
  glucose levels in blood / glucose control: improves glucose levels in blood
mice; FIG. 2
  response to a sub-therapeutic dose of GLP-1: potentiate the response to a subtherapeutic dose of GLP-1
mice; FIG. 2, listed as PBP-1
  response to a sub-therapeutic dose of GLP-1: potentiates the response to a sub-therapeutic dose of GLP-1

## glucagon-like peptide-1 [GLP-1]
[1]; thirty minutes after subcutaneous GLP-1, diabetic patients (n=8)
  metabolite share of the increase in plasma immunoreactivity (COOH-terminal RIA): 88.5+1.9%
[1]; thirty minutes after subcutaneous GLP-1, healthy subjects (n=8)
  metabolite share of the increase in plasma immunoreactivity (COOH-terminal RIA): 78.4+3.2%

## CC(NC(=O)OC(C)(C)C)C(=O)N1CCCC1B(O)O (stereo not drawn) [Boc-blocked Ala-boroPro, Boc-Ala-boroPro]
DP-IV
  affinity for DP-IV: no affinity

## L-Ala-L-boroPro-pinacol
DP-IV; silica gel fractions compared at equal concentrations
  extent of DP-IV inhibition: inhibits DP-IV to a greater extent than later fractions
